Results: ChEMBL document CHEMBL2074548, “Transport of digoxin by human P-glycoprotein expressed in a porcine kidney epithelial cell line (LLC-PK1)” (J Pharmacol Exp Ther, 1992)

Experiments:
[1] = target: T1, ATP-dependent translocase ABCB1 (Homo sapiens, UniProt P08183); assay: TP_TRANSPORTER: transepithelial transport (basal to apical) in MDR1-expressing LLC-PK1 cells; assay type: functional, cell-based; conditions: pig
[2] = target: T1, ATP-dependent translocase ABCB1; assay: TP_TRANSPORTER: inhibition of Digoxin transepithelial transport (basal to apical)(Digoxin: 0.1uM, Vinblastine: 20 uM) in MDR1-expressing LLC-PK1 cells; assay type: functional, cell-based; conditions: pig, llc-pk1, 20 µM

T1 sequence (P08183 whole entry): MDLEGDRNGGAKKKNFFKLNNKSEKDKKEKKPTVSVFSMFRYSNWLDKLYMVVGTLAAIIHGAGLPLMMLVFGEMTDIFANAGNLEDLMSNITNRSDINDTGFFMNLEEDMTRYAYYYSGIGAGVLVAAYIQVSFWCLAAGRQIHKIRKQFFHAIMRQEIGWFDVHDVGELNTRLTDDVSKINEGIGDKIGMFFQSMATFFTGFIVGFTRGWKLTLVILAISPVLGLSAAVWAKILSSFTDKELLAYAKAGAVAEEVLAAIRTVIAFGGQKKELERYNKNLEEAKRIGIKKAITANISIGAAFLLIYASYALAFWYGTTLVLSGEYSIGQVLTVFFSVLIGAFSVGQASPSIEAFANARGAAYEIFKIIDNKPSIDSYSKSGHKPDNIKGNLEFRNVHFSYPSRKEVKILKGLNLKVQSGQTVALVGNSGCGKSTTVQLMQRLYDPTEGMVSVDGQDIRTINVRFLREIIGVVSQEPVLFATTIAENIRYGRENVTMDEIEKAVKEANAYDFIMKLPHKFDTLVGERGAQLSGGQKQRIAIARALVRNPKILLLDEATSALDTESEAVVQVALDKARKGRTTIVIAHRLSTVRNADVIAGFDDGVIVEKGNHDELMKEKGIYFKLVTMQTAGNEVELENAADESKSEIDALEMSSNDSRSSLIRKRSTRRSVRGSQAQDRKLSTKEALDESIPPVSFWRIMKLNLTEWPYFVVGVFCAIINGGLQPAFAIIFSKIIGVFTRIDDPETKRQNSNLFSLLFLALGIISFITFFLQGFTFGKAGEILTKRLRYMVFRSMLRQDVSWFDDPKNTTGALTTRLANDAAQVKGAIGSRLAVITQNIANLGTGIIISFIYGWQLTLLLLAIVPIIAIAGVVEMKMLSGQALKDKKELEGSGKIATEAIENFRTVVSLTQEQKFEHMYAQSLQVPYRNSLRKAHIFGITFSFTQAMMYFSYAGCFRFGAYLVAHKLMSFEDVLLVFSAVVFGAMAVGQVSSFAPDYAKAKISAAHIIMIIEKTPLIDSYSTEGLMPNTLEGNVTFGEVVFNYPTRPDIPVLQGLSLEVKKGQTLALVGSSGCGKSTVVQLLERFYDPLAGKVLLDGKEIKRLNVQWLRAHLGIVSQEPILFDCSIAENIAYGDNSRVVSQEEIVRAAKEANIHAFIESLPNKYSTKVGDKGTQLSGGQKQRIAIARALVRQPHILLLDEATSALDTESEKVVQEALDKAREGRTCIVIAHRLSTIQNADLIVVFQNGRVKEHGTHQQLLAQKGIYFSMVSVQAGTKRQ

Activity [1]	Activity [2]	Compound
substrate [+]	–	C[C@H]1O[C@@H](O[C@H]2[C@@H](O)C[C@H](O[C@H]3[C@@H](O)C[C@H](O[C@H]4CC[C@@]5(C)[C@H](CC[C@@H]6[C@@H]5C[C@@H](O)[C@]5(C)[C@@H](C7=CC(=O)OC7)CC[C@]65O)C4)O[C@@H]3C)O[C@@H]2C)C[C@H](O)[C@@H]1O [DIGOXIN]
–	inhibitor [+]	CC[C@]1(O)C[C@@H]2CN(CCc3c([nH]c4ccccc34)[C@@](C(=O)OC)(c3cc4c(cc3OC)N(C)[C@H]3[C@@](O)(C(=O)OC)[C@H](OC(C)=O)[C@]5(CC)C=CCN6CC[C@]43[C@@H]65)C2)C1 [VINBLASTINE]
